In test [1] the test system is SK-OV-3. In words: Nonspecific cytotoxicity against human SKOV3 cells after 44 hrs by MTT assay. It is filed as functional. Particulars: SK-OV-3, 44 h. For orientation: Tetrazolium assays rely on reduction of a dye to a coloured formazan, in cell work by metabolically active cells.
In test [2] the test system is PC-3. In words: Nonspecific cytotoxicity against human PC3 cells after 44 hrs by MTT assay. It is filed as functional. As to conditions: PC-3, 44 h.
Test [3] addresses T1, Kinesin-like protein KIFC3 (Homo sapiens) (UniProt Q9BVG8).
T1 sequence (whole entry): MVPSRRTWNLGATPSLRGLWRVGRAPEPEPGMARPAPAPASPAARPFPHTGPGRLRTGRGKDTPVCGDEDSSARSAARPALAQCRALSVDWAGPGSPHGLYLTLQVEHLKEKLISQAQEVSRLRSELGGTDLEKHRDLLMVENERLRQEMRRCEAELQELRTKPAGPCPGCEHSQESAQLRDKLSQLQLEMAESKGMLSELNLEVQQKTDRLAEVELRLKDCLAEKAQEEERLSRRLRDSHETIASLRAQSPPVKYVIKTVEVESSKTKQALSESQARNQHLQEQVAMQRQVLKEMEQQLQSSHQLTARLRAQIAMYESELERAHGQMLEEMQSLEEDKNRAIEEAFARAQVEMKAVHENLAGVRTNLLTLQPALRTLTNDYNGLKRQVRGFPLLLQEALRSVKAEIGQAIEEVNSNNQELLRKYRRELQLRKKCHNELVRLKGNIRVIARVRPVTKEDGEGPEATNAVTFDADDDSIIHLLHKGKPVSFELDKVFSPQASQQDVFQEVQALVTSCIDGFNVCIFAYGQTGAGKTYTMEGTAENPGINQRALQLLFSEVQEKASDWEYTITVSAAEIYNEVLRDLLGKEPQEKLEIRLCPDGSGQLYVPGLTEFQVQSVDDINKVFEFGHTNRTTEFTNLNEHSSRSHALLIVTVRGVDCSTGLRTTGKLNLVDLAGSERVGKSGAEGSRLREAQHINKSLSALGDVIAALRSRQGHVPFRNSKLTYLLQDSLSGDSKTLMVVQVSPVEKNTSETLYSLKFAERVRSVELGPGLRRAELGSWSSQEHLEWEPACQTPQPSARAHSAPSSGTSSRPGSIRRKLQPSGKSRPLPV
Kind of test: Inhibition of KIFC3 (unknown origin)-mediated ATP hydrolysis assessed as residual activity at 1 uM after 10 to 20 mins by spectrophotometric analysis.

In test [4] the target is T2, Kinesin-like protein KIF2C (Homo sapiens) (UniProt Q99661).
T2 sequence (whole entry): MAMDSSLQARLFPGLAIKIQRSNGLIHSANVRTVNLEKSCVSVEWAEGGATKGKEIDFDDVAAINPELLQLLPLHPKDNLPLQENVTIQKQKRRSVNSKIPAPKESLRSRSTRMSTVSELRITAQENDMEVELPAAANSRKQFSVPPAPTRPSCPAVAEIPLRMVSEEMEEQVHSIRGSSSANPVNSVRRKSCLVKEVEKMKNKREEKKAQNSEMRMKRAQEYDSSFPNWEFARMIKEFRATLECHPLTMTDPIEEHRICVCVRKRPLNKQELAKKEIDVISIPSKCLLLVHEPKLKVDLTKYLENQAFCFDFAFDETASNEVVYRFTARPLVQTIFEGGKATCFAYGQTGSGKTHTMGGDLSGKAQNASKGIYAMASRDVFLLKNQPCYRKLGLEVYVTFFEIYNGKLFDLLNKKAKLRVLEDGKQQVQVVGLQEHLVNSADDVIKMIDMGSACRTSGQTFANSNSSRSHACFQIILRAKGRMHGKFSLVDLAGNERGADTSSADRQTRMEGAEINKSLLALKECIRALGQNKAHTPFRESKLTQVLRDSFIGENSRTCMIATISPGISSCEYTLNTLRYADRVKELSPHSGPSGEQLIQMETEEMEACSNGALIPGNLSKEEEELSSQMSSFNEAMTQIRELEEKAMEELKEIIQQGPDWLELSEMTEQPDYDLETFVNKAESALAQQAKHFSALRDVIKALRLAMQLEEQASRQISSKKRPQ
In words: Inhibition of MCAK (unknown origin)-mediated ATP hydrolysis assessed as residual activity at 1 uM after 10 to 20 mins by spectrophotometric analysis.

The test system of test [5] is SK-OV-3. Kind of test: Cell cycle arrest in human SKOV3 cells assessed as accumulation in S phase at 100 nM after 24 hrs by FACS analysis (reference value: 18.4%). It is filed as functional. (A flow cytometer gives signals particle by particle.)
The subject of test [6] is SK-OV-3. Kind of test: Cell cycle arrest in human SKOV3 cells assessed as accumulation in G0/G1 phase at 100 nM after 24 hrs by FACS analysis (reference value: 51.1%). It is filed as functional.
Test [7] has as its system MCF7. In words: Cell cycle arrest in human MCF7 cells assessed as accumulation in G2/M phase at 100 nM after 24 hrs by FACS analysis (reference value: 22.4%). It is filed as functional.
In test [8] the test system is MCF7. In words: Cell cycle arrest in human MCF7 cells assessed as accumulation in G0/G1 phase at 100 nM after 24 hrs by FACS analysis (reference value: 48.2%). It is filed as functional.
In test [9] the test system is MCF7. In words: Cell cycle arrest in human MCF7 cells assessed as accumulation in S phase at 100 nM after 24 hrs by FACS analysis (reference value: 19.6%). It is filed as functional.
In test [10] the test system is PC-3. In words: Cell cycle arrest in human PC3 cells assessed as accumulation in G2/M phase at 100 nM after 24 hrs by FACS analysis (reference value: 26.3%). It is filed as functional.
Test [11] deals with PC-3. In words: Cell cycle arrest in human PC3 cells assessed as accumulation in S phase at 100 nM after 24 hrs by FACS analysis (reference value: 14.2%). It is filed as functional.
In test [12] the test system is PC-3. Kind of test: Cell cycle arrest in human PC3 cells assessed as accumulation in G0/G1 phase at 100 nM after 24 hrs by FACS analysis (reference value: 32.6%). It is filed as functional.
Test [13] deals with DU-145. Kind of test: Cell cycle arrest in human DU145 cells assessed as accumulation in S phase at 100 nM after 24 hrs by FACS analysis (reference value: 4.5%). It is filed as functional.
Test [14] has as its system DU-145. In words: Cell cycle arrest in human DU145 cells assessed as accumulation in G2/M phase at 100 nM after 24 hrs by FACS analysis (reference value: 31%). It is filed as functional.
Test [15] has as its system DU-145. Kind of test: Cell cycle arrest in human DU145 cells assessed as accumulation in G0/G1 phase at 100 nM after 24 hrs by FACS analysis (reference value: 53.2%). It is filed as functional.
Test [16] concerns SK-OV-3. Kind of test: Cell cycle arrest in human SKOV3 cells assessed as accumulation in G2/M phase at 100 nM after 24 hrs by FACS analysis (reference value: 21.8%). It is filed as functional.
The subject of test [17] is SK-OV-3. Kind of test: Cytotoxicity against human SKOV3 cells assessed as inhibition of KSP-mediated cell cycle progression after 44 hrs by MTT assay. It is filed as functional. Particulars: SK-OV-3, 44 h.
Test [18] relates to MCF7. Kind of test: Cytotoxicity against human MCF7 cells assessed as inhibition of KSP-mediated cell cycle progression after 44 hrs by MTT assay. It is filed as functional. Particulars: MCF7, 44 h.
The subject of test [19] is PC-3. Kind of test: Cytotoxicity against human PC3 cells assessed as inhibition of KSP-mediated cell cycle progression after 44 hrs by MTT assay. Particulars: PC-3, 44 h. It is filed as functional.
Test [20] has as its system DU-145. In words: Cytotoxicity against human DU145 cells assessed as inhibition of KSP-mediated cell cycle progression after 44 hrs by MTT assay. It is filed as functional. As to conditions: DU-145, 44 h.
Test [21] has as its system SK-OV-3. In words: Cell cycle arrest in human SKOV3 cells assessed as monoaster phenotype at 100 nM after 22 hrs by confocal microscopic analysis. It is filed as functional, cell-based.

The values that follow come from ChEMBL document CHEMBL2321780, “Fluorinated quinazolinones as potential radiotracers for imaging kinesin spindle protein expression” (2013).

Activity calls are given as the source filed them. No cut-off for these calls is given here.

One may read the GI50 as the concentration giving 50% growth inhibition. For `CC(C)[C@@H](c1nc2cc(Cl)ccc2c(=O)n1Cc1ccccc1)N(CCCN)C(=O)c1ccccc1F`, the GI50 with SK-OV-3 [1] was found to be 850 nM; in the test with PC-3 [2], 160 nM. The Activity in test [3] came out at 98.8%; in test [4] it was 98.2%.
For `CC(C)[C@@H](c1nc2cc(Cl)ccc2c(=O)n1Cc1ccccc1)N(CCCN)C(=O)c1cccc(F)c1` the same measures were 1100 nM, 1800 nM, 98.9% and 98.6%.
As to `Cc1ccc(C(=O)N(CCCN)[C@H](c2nc3cc(Cl)ccc3c(=O)n2Cc2ccccc2)C(C)C)cc1`, the Activity is given as 16.6% in the test with SK-OV-3 [5]; 49.8% with SK-OV-3 [6]; 21.2% with MCF7 [7]; 49.7% in the test on MCF7 [8]; 17.6% with MCF7 [9]; 25% in the test on PC-3 [10]. Also, the Activity came out at 30% in the test on PC-3 [11]; 34.4% with PC-3 [12]; 10.3% with DU-145 [13]; 24.5% in the test on DU-145 [14]; 53.7% with DU-145 [15]; 97.9% in [3]. The Activity in [4] came out at 99.2%; in the test with SK-OV-3 [16], 14.5%.
In the case of `Cc1ccc(C(=O)N(CCCN)[C@@H](c2nc3cc(Cl)ccc3c(=O)n2Cc2ccccc2)C(C)C)cc1` [ISPINESIB], the Activity is given as 13.6% in the test with SK-OV-3 [5]; 3.8% with SK-OV-3 [6]; 57.2% in the test with MCF7 [7]; 22.1% in the test with MCF7 [8]; 10.6% in the test on MCF7 [9]; 60.9% in the test with PC-3 [10]. Moreover, the Activity in the test on PC-3 [11] was 10.1%; in the test on PC-3 [12], 13.8%; in the test on DU-145 [13] it was 10.8%; in the test with DU-145 [14] it was 49.8%; in the test on DU-145 [15], 24.8%; in test [3], 97.3%. In addition, the Activity in test [4] turned out to be 96.7%; in the test with SK-OV-3 [16], 51.3%.
Take `CC(C)C(c1nc2cc(Cl)ccc2c(=O)n1Cc1ccccc1)N(CCCN)C(=O)c1cccc(F)c1` (racemic): the GI50 in the test with SK-OV-3 [17] stood at 15.6 nM; in the test on SK-OV-3 [1], 5700 nM; in the test with MCF7 [18], 5.1 nM; in the test with PC-3 [19], 17 nM; in the test on PC-3 [2] it was 7600 nM; with DU-145 [20], 4 nM. The Activity in test [3] amounted to 99.4%; in test [4] it was 96.4%.
Turning to `CC(C)[C@@H](c1nc2cc(Cl)ccc2c(=O)n1Cc1ccccc1)N(CCCN)C(=O)c1ccc(F)cc1`, the Activity with SK-OV-3 [5] turned out to be 16.2%; in the test with SK-OV-3 [6], 51.9%; with MCF7 [7], 22.8%; with MCF7 [8], 51.3%; in the test with MCF7 [9], 15.2%; with PC-3 [10], 32.9%. For the same molecule, the Activity in the test on PC-3 [11] was 24.2%; in the test on PC-3 [12] it was 31%; with DU-145 [13], 9.5%; in the test on DU-145 [14], 27.7%; with DU-145 [15], 52.9%; in test [3], 98.7%. The figures for the Activity (in test [4]; in the test on SK-OV-3 [16]) were 98.9% and 22.5%, respectively. Further, the GI50 in the test on SK-OV-3 [1] came to 500 nM; in the test on PC-3 [2], 1300 nM.
Take `CC(C)[C@H](c1nc2cc(Cl)ccc2c(=O)n1Cc1ccccc1)N(CCCN)C(=O)c1ccc(F)cc1`: the Activity in the test with SK-OV-3 [5] turned out to be 13.8%; in the test on SK-OV-3 [6], 3.5%; in the test with MCF7 [7], 53.2%; in the test on MCF7 [8] it was 25.1%; in the test on MCF7 [9], 12%; in the test with PC-3 [10], 63.6%. Further, the Activity was 11.1% in the test with PC-3 [11]; 12% with PC-3 [12]; 101% in test [3]; 99.2% in test [4]; 58.5% in the test with SK-OV-3 [16]. Further, the GI50 stood at 15400 nM in the test on SK-OV-3 [1]; 1 nM with MCF7 [18]; 0.5 nM in the test on PC-3 [19]; 5100 nM in the test on PC-3 [2]; 0.19 nM in the test on DU-145 [20]. In addition, the result with SK-OV-3 [21] was Active.
With `CC(C)[C@H](c1nc2cc(Cl)ccc2c(=O)n1Cc1ccccc1)N(CCCN)C(=O)c1ccccc1F`, the GI50 in the test on SK-OV-3 [17] was 34.8 nM; with SK-OV-3 [1], 5350 nM; in the test with MCF7 [18] it was 4.2 nM; with PC-3 [19], 7.8 nM; in the test with PC-3 [2], 4600 nM; in the test on DU-145 [20], 10.7 nM. For the same molecule, the Activity in test [3] is 99.4%; in test [4], 98.7%. Besides, the result in the test on SK-OV-3 [21] was Active.
